We go through eleven compounds from ChEMBL document CHEMBL3392983, “Synthesis, antimicrobial activity and molecular docking of novel tetracyclic scaffolds incorporating a flavonoid framework with medium sized oxygen heterocycles” (2015).

Holding throughout (type): functional
The subject of test [1] is Staphylococcus aureus. As to the kind of experiment: Antimicrobial activity against Staphylococcus aureus ATCC 25923 assessed as inhibition of microbial growth incubated for 24 hrs by broth dilution method. The conditions noted are these: ATCC 25923, 24 h. In general terms: Broth dilution looks for growth in wells or tubes with falling amounts of substance.
The subject of test [2] is Pseudomonas aeruginosa. As to the kind of experiment: Bactericidal activity against Pseudomonas aeruginosa ATCC 10145 assessed as microbial killing during 18 hrs post sub-culture onto drug-free solid media by broth dilution method. The conditions noted are these: ATCC 10145, 18 h, read-out: MBC99.9.
Test [3] has as its system Escherichia coli. As to the kind of experiment: Bactericidal activity against Escherichia coli ATCC 10536 assessed as microbial killing during 18 hrs post sub-culture onto drug-free solid media by broth dilution method. The following applies: ATCC 10536, 18 h, read-out: MBC99.9.
Another test has as its system Candida albicans. As to the kind of experiment: Antimicrobial activity against Candida albicans ATCC 10231 assessed as inhibition of microbial growth incubated for 72 hrs by broth dilution method. The following applies: ATCC 10231, 72 h.
Test [4] has as its system Escherichia coli. As to the kind of experiment: Antimicrobial activity against Escherichia coli ATCC 10536 assessed as inhibition of microbial growth incubated for 24 hrs by broth dilution method. The conditions noted are these: ATCC 10536, 24 h.
The subject of the next test is Candida tropicalis. As to the kind of experiment: Antimicrobial activity against Candida tropicalis ATCC 750 assessed as inhibition of microbial growth incubated for 72 hrs by broth dilution method. The conditions noted are these: ATCC 750, 72 h.
Test [5] concerns Pseudomonas aeruginosa. As to the kind of experiment: Antimicrobial activity against Pseudomonas aeruginosa ATCC 10145 assessed as inhibition of microbial growth incubated for 24 hrs by broth dilution method. The conditions noted are these: ATCC 10145, 24 h.
Test [6] relates to Bacillus subtilis. As to the kind of experiment: Antimicrobial activity against Bacillus subtilis ATCC 6633 assessed as inhibition of microbial growth incubated for 24 hrs by broth dilution method. The following applies: ATCC 6633, 24 h.
The test system of test [7] is Staphylococcus aureus. As to the kind of experiment: Bactericidal activity against Staphylococcus aureus ATCC 25923 assessed as microbial killing during 18 hrs post sub-culture onto drug-free solid media by broth dilution method. The following applies: ATCC 25923, 18 h, read-out: MBC99.9.
The subject of the next test is Klebsiella pneumoniae. As to the kind of experiment: Antimicrobial activity against Klebsiella pneumoniae ATCC 10031 assessed as inhibition of microbial growth incubated for 24 hrs by broth dilution method. The conditions noted are these: ATCC 10031, 24 h.
The test system of test [8] is Bacillus subtilis. As to the kind of experiment: Bactericidal activity against Bacillus subtilis ATCC 6633 assessed as microbial killing during 18 hrs post sub-culture onto drug-free solid media by broth dilution method. The following applies: ATCC 6633, 18 h, read-out: MBC99.9.

Converted amounts (≈) assume the structure as drawn.

As for `O=c1c2c(oc3ccc(F)cc13)-c1ccccc1OCCO2`, the MIC (as a rule, the lowest concentration that inhibits growth of the organism) is 0.134 µM in the test on Staphylococcus aureus [1]; over 0.671 µM in the test with Candida albicans; 0.167 µM with Escherichia coli [4]; over 0.671 µM in the test on Candida tropicalis; 0.1 µM with Pseudomonas aeruginosa [5]; 0.117 µM with Bacillus subtilis [6]. Further, the MIC in the test on Klebsiella pneumoniae turned out to be 0.117 µM. Further, the MBC worked out at 0.033 µM (≈ 0.00984 µg/mL) with Pseudomonas aeruginosa [2], 0.096 µM (≈ 0.0286 µg/mL) in the test with Escherichia coli [3], 0.093 µM (≈ 0.0277 µg/mL) with Staphylococcus aureus [7] and 0.073 µM (≈ 0.0218 µg/mL) in the test with Bacillus subtilis [8].
As for `OC(Cn1cncn1)(Cn1cncn1)c1ccc(F)cc1F` [FLUCONAZOLE], the MIC in the test on Candida albicans and in the test on Candida tropicalis was at most 0.033 µM throughout.
With `O=c1c2c(oc3ccc(F)cc13)-c1ccccc1OCCCO2`, the MIC in the test on Staphylococcus aureus [1] is 0.129 µM; in the test with Candida albicans it was over 0.641 µM; with Escherichia coli [4], 0.16 µM; in the test on Candida tropicalis it was over 0.641 µM; with Pseudomonas aeruginosa [5] it was 0.064 µM; with Bacillus subtilis [6], 0.081 µM. In addition, in the test with Klebsiella pneumoniae, the MIC is 0.112 µM. The MBC in the test with Pseudomonas aeruginosa [2] turned out to be 0.032 µM (≈ 0.00999 µg/mL); with Escherichia coli [3] it was 0.096 µM (≈ 0.03 µg/mL); with Staphylococcus aureus [7] it was 0.116 µM (≈ 0.0362 µg/mL); in the test on Bacillus subtilis [8] it was 0.032 µM (≈ 0.00999 µg/mL).
Consider `O=c1c(O)c(-c2ccccc2O)oc2ccc(F)cc12`, for which the MIC in the test on Staphylococcus aureus [1] was 0.259 µM; with Candida albicans, over 0.735 µM; in the test on Escherichia coli [4], 0.22 µM; with Candida tropicalis it was over 0.735 µM; in the test on Pseudomonas aeruginosa [5], 0.275 µM; in the test on Bacillus subtilis [6], 0.167 µM. Moreover, the MIC in the test on Klebsiella pneumoniae was 0.202 µM.
Regarding `O=c1c2c(oc3ccc(Br)cc13)-c1ccccc1OCCCCCO2`, the MIC in the test with Staphylococcus aureus [1] was 0.051 µM; in the test with Candida albicans, over 0.5 µM; with Escherichia coli [4], 0.025 µM; in the test on Candida tropicalis, over 0.5 µM; in the test with Pseudomonas aeruginosa [5] it was 0.062 µM; in the test on Bacillus subtilis [6], 0.063 µM. For the same compound, the MIC in the test with Klebsiella pneumoniae came out at 0.037 µM. Moreover, the MBC in the test on Pseudomonas aeruginosa [2] was found to be 0.05 µM (≈ 0.0201 µg/mL); in the test with Escherichia coli [3], 0.02 µM (≈ 0.00803 µg/mL); with Staphylococcus aureus [7], 0.04 µM (≈ 0.0161 µg/mL); with Bacillus subtilis [8], 0.035 µM (≈ 0.014 µg/mL).
For `O=c1c2c(oc3ccccc13)-c1ccccc1OCCCCO2`, the MIC with Staphylococcus aureus [1] was 0.097 µM; in the test with Candida albicans it was over 0.649 µM; in the test with Escherichia coli [4], 0.146 µM; in the test with Candida tropicalis it was over 0.649 µM; in the test with Pseudomonas aeruginosa [5], 0.113 µM; with Bacillus subtilis [6] it was 0.064 µM. Also, the MIC in the test with Klebsiella pneumoniae was determined as 0.064 µM. Moreover, the MBC was 0.082 µM (≈ 0.0253 µg/mL) with Pseudomonas aeruginosa [2], 0.072 µM (≈ 0.0222 µg/mL) with Escherichia coli [3], 0.059 µM (≈ 0.0182 µg/mL) with Staphylococcus aureus [7] and 0.064 µM (≈ 0.0197 µg/mL) in the test on Bacillus subtilis [8].
With `O=c1c2c(oc3ccc(F)cc13)-c1ccccc1OCCCCCO2`, the MIC with Staphylococcus aureus [1] is 0.132 µM; in the test with Candida albicans it was over 0.588 µM; with Escherichia coli [4] it was 0.102 µM; in the test on Candida tropicalis it was over 0.588 µM; in the test on Pseudomonas aeruginosa [5] it was 0.073 µM; in the test on Bacillus subtilis [6] it was 0.117 µM. Further, in the test with Klebsiella pneumoniae, the MIC worked out at 0.088 µM. The MBC is 0.035 µM (≈ 0.0119 µg/mL) with Pseudomonas aeruginosa [2], 0.074 µM (≈ 0.0252 µg/mL) with Escherichia coli [3], 0.11 µM (≈ 0.0374 µg/mL) with Staphylococcus aureus [7] and 0.039 µM (≈ 0.0133 µg/mL) in the test with Bacillus subtilis [8].
Regarding `O=c1c2c(oc3ccccc13)-c1ccccc1OCCCO2`, the minimum inhibitory concentration (MIC) in the test with Staphylococcus aureus [1] is 0.272 µM; with Candida albicans it was over 0.68 µM; in the test with Escherichia coli [4], 0.051 µM; in the test on Candida tropicalis, over 0.68 µM; with Pseudomonas aeruginosa [5], 0.136 µM; in the test with Bacillus subtilis [6], 0.085 µM. The MIC with Klebsiella pneumoniae was 0.102 µM. For the same compound, the MBC was determined as 0.084 µM (≈ 0.0247 µg/mL) with Pseudomonas aeruginosa [2], 0.052 µM (≈ 0.0153 µg/mL) in the test on Escherichia coli [3], 0.136 µM (≈ 0.04 µg/mL) in the test with Staphylococcus aureus [7] and 0.034 µM (≈ 0.01 µg/mL) in the test with Bacillus subtilis [8].
For `O=c1c2c(oc3ccc(Br)cc13)-c1ccccc1OCCCCO2`, the MIC with Staphylococcus aureus [1] was 0.079 µM; in the test on Candida albicans it was over 0.518 µM; in the test on Escherichia coli [4], 0.038 µM; with Candida tropicalis, over 0.518 µM; in the test with Pseudomonas aeruginosa [5] it was 0.051 µM; in the test with Bacillus subtilis [6], 0.066 µM. Also, the MIC in the test with Klebsiella pneumoniae came out at 0.09 µM. Further, the MBC in the test with Pseudomonas aeruginosa [2] amounted to 0.024 µM (≈ 0.00929 µg/mL); with Escherichia coli [3], 0.027 µM (≈ 0.0105 µg/mL); with Staphylococcus aureus [7] it was 0.024 µM (≈ 0.00929 µg/mL); in the test on Bacillus subtilis [8] it was 0.053 µM (≈ 0.0205 µg/mL).
For `O=c1c2c(oc3ccc(Cl)cc13)-c1ccccc1OCCCCO2`, the MIC was 0.204 µM with Staphylococcus aureus [1]; over 0.584 µM in the test with Candida albicans; 0.029 µM in the test on Escherichia coli [4]; over 0.584 µM in the test with Candida tropicalis; 0.146 µM in the test on Pseudomonas aeruginosa [5]; 0.073 µM in the test with Bacillus subtilis [6]. Besides, in the test with Klebsiella pneumoniae, the MIC is 0.146 µM. Also, the MBC in the test with Pseudomonas aeruginosa [2] was 0.058 µM (≈ 0.0199 µg/mL); in the test on Escherichia coli [3], 0.028 µM (≈ 0.0096 µg/mL); with Staphylococcus aureus [7], 0.154 µM (≈ 0.0528 µg/mL); in the test with Bacillus subtilis [8], 0.024 µM (≈ 0.00823 µg/mL).
Consider `O=c1c2c(oc3ccc(Cl)cc13)-c1ccccc1OCCCO2`, for which the MIC in the test with Staphylococcus aureus [1] is 0.092 µM; in the test on Candida albicans, over 0.609 µM; in the test on Escherichia coli [4], 0.045 µM; with Candida tropicalis, over 0.609 µM; in the test on Pseudomonas aeruginosa [5], 0.06 µM; in the test on Bacillus subtilis [6], 0.077 µM. Further, the MIC with Klebsiella pneumoniae stood at 0.106 µM. The MBC in the test on Pseudomonas aeruginosa [2] stood at 0.03 µM (≈ 0.00986 µg/mL); in the test with Escherichia coli [3], 0.03 µM (≈ 0.00986 µg/mL); with Staphylococcus aureus [7], 0.051 µM (≈ 0.0168 µg/mL); with Bacillus subtilis [8], 0.075 µM (≈ 0.0247 µg/mL).
